Where two headings read alike, the source gives them in different places.
System: HBV
Experiment: Test Example 1-1: anti-HBV assay in HepG2.2.15 cells (test solution 200 μL/well)
Format: cell-based, hepatitis B virus
Conditions: culture supernatant
Experimental: Using HepG2.2.15 cells (Proc. Natl. Acad. Sci. USA, 84, 1005-1009, 1987) which have an HBV genome introduced into a hepatoblastoma cell line, HepG2, and persistently produce a virus, the anti-HBV activity of the representative compounds was evaluated in the following procedure.
The following was used as a medium:
DMEM/F-12, GlutaMAX (manufactured by Invitrogen)+5 μg/mL insulin (manufactured by Wako)+1% penicillin/streptomycin (manufactured by Sigma)+10 mmol/L HEPES (manufactured by Sigma)+50 μmol/L hydrocortisone (manufactured by Sigma)+10% FBS
A mixture of a test compound with dimethyl sulfoxide (DMSO) was further added to the medium to obtain a final concentration of DMSO of 0.25% (v/v), and thus, test solutions containing the test compound at various concentrations were prepared. In addition, a test solution obtained by adding DMSO alone to the medium to obtain a final concentration of 0.25% (v/v) was prepared as a control without addition of a drug.
(1) The HepG2.2.15 cells were suspended in the medium to prepare a. HepG2.2.15 cell suspension at 4×10^5 cells/mL. The suspension was seeded in a 96-well microtiter plate (100 μL/well) and the plate was incubated in a 5% CO2 incubator at 37° C. for 2 days.
(2) The culture supernatant was removed and the cells were washed twice with PBS (−) (100 μL/well).
(3) The test solution (200 μL/well) was added to the plate of (2) and the plate was incubated in a 5% CO2 incubator at 37° C. for 4 days.
(4) The culture supernatant was removed, the test solution (200 μL/well) was added again to the plate, and the plate was incubated in a 5% CO2 incubator at 37° C. for 3 days.
(5) The culture supernatant was collected and treated with a mixture of Buffer AL (manufactured by QIAGEN) and Proteinase K (manufactured by Invitrogen). The amount of DNA of HBV (HBV-DNA) in the obtained solution was absolutely quantified by a real-time PCR method. In addition, HBsAg (hepatitis B surface antigen) in the culture supernatant was absolutely quantified by chemiluminescent enzyme immunoassay using Lumipulse (registered trademark) HBsAg-HQ (manufactured by Fujirebio Inc.). The relative viral load (%) of a well with the compound added to a well without the compound added was calculated. An IC50 of the compound was calculated using a FORECAST function (linear regression method) of Microsoft Office Excel 2007 by plotting the logarithm of the concentration against the relative viral load as a real number.
The IC50 of HBV-DNA was defined as a concentration (or a logarithm dilution of the culture supernatant) of the compound, in which the amount of HBV-DNA is reduced by 50% as compared a control without the compound added.
In addition, the IC50 of HBsAg was defined as a concentration (or a logarithm dilution of the culture supernatant) of the compound, in which the amount of HBsAg is reduced by 50% as compared a control without the compound added.

[1] = Hepatitis B virus, read-out: IC50 HBV-DNA
[2] = Hepatitis B virus, read-out: IC50 HBsAg

O=C(O)c1cn(-c2ccc3ncsc3c2)c(-c2ccc(-c3ccc(F)cc3)s2)cc1=O [Example 14, 1-(Benzo[d]thiazol-6-yl)-6-(5-(4-fluorophenyl)thiophen-2-yl)-4-oxo-1,4-dihydropyridine-3-carboxylic acid]
IC50 [1]: 100 nM
IC50 [2]: 91 nM

COc1cc(-c2cc(=O)c(C(=O)O)cn2-c2ccc3nc(C)sc3c2)ccc1N1CCCC1 [Example 4-1, 6-(3-methoxy-4-(pyrrolidin-1-yl)phenyl-1)-(2-methylbenzo[d]thiazol-6-yl)-4-oxo-1,4-dihydropyridine-3-carboxylic acid]
IC50 (read-out: IC50 HBV-DNA): 18 nM
IC50 (read-out: IC50 HBsAg): 18 nM

O=C(O)c1cn(-c2ccc3nc(NCc4ccccn4)sc3c2)c(-c2ccc(N3CCCC3)cc2)cc1=O [Example 3-12, 4-oxo-1-(2-((pyridin-2-ylmethyl)amino)benzo[d]thiazol-6-yl)-6-(4-(pyrrolidin-1-yl)phenyl)-1,4-dihydropyridine-3-carboxylic acid]
IC50 [1]: 2.9 nM
IC50 [2]: 2.4 nM

COc1nc2ccc(-n3cc(C(=O)O)c(=O)cc3-c3ccc(N4CCCC4)cc3)cc2s1 [Example 3-5, 1-(2-methoxybenzo[d]thiazol-6-yl)-4-oxo-6-(4-(pyrrolidin-1-yl)phenyl)-1,4-dihydropyridine-3-carboxylic acid]
IC50 [1]: 4 nM
IC50 [2]: 8 nM

Cc1nc2ccc(-n3cc(C(=O)O)c(=O)cc3-c3ccc(N(C)C)cc3)cc2s1 [Example 1, 6-(4-(dimethylamino)phenyl)-1-(2-methylbenzo[d]thiazol-6-yl)-4-oxo-1,4-dihydropyridine-3-carboxylic acid]
IC50 [1]: 120 nM
IC50 [2]: 120 nM

COCCN(CCOC)c1nc2ccc(-n3cc(C(=O)O)c(=O)cc3-c3ccc(N4CCCC4)cc3)cc2s1 [Example 3-6, 1-(2-(bis(2-methoxyethyl)amino)benzo[d]thiazol-6-yl)-4-oxo-6-(4-(pyrrolidin-1-yl)phenyl)-1,4-dihydropyridine-3-carboxylic acid]
IC50 [1]: 3.9 nM
IC50 [2]: 3 nM

O=C(O)c1cn(-c2ccc3nc(N4CCOCC4)sc3c2)c(-c2ccc(N3CCCC3)c(Cl)c2)cc1=O [Example 6-1, 6-(3-chloro-4-(pyrrolidin-1-yl)phenyl)-1-(2-morpholinebenzo[d]thiazol-6-yl)-4-oxo-1,4-dihydropyridine-3-carboxylic acid]
IC50 (read-out: IC50 HBV-DNA): 10 nM
IC50 (read-out: IC50 HBsAg): 3.8 nM

COc1cc(-c2cc(=O)c(C(=O)O)cn2-c2ccc3nc(N4CCOCC4)sc3c2)ccc1N1CCCC1 [Example 4-2, 6-(3-methoxy-4-(pyrrolidin-1-yl)phenyl)-1-(2-morpholinobenzo[d]thiazol-6-yl)-4-oxo-1,4-dihydropyridine-3-carboxylic acid]
IC50 [1]: 10.9 nM
IC50 [2]: 5.3 nM

Cc1nc2ccc(-n3cc(C(=O)O)c(=O)cc3-c3ccc(N4CC[C@@H](OCc5ccc(F)cc5)C4)cc3)cc2s1 [Example 8, (R)-6-(4-(3-((4-Fluorobenzyl)oxy)pyrrolidin-1-yl)phenyl)-1-(2-methylbenzo[d]thiazol-6-yl)-4-oxo-1,4-dihydropyridine-3-carboxylic acid]
IC50 [1]: 20 nM
IC50 [2]: 19 nM

O=C(O)c1cn(-c2ccc3nc(N4CCOCC4)sc3c2)c(-c2ccc(N3CCCC3)c(Br)c2)cc1=O [Example 5-2, 6-(3-bromo-4-(pyrrolidin-1-yl)phenyl)-1-(2-morpholinobenzo[d]thiazol-6-yl)-4-oxo-1,4-dihydropyridine-3-carboxylic acid]
IC50 [1]: 1.2 nM
IC50 [2]: 1.6 nM

CCN1CCN(c2nc3ccc(-n4cc(C(=O)O)c(=O)cc4-c4ccc(N5CCCC5)cc4)cc3s2)CC1 [Example 3-9, 1-(2-(4-ethylpiperazin-1-yl)benzo[d]thiazol-6-yl)-4-oxo-6-(4-(pyrrolidin-1-yl)phenyl)-1,4-dihydropyridine-3-carboxylic acid]
IC50 [1]: 3.5 nM
IC50 [2]: 6 nM

Reference: US11161830B2, “4-pyridone compound or salt thereof, and pharmaceutical composition and formulation including same” (priority 2017, dated 2021)
